In US9597407B2, “Targeted antimicrobial moieties” (C3 Jian, Inc., priority 2009, dated 2017):
Entries after “also recorded” stand apart in the source; their conditions may differ.

B1: PF-748 (peptide)
chain 1: FQGFFDVAVNKWWEEHNKAKLWKNVKGKFLEGEGEEEDDE
chain 2: B1 chain 1
modifications: Peptide with targeting and/or antimicrobial activity

Columns and labels:
microorganisms [1] = test: Morphology, biofilm and growth disruption by peptides (Table 5); format: cell-based; design: key: A: Peptide aggregates; B: Less hyphal formation; Clumps; Diffuse clumps and small polyps; F: Diffuse growth; H: Thin; I: Growth inhibition; Microcolony formation; Rippled; Small polyps; Thick; W: Halo formation on top, microlonies on bottom
From the text: In certain embodiments peptides that induce alterations in phenotype or other biological activities can also be used as antimicrobial effector moieties.

bacteria = test: Binding of targeting peptides to microorganisms (Table 3); details: microorganism the targeting peptide binds; binding in aqueous buffers that varied with peptide solubility, preferably 1x PBS
microorganisms [2] = test: Peptide activities: binding, antimicrobial, growth or phenotype altering (Table 8)
From the text: In certain embodiments, peptides described herein can have multiple activities. Thus for example, a peptide can have both binding/targeting activity and antimicrobial activity. Such peptides can be used, e.g., in a chimeric construct, for any or all of these properties. Thus, for example, a peptide designated “B” in Table 8 can be used as a targeting peptide. If it is also designated G or M it can also be used for antimicrobial activity.

Molecule | Target(s) (bacteria) | Activities (microorganisms [2]) | Organism, effect (microorganisms [1]; MRSA) | Organism, effect (morphology, biofilm and growth disruption) (microorganisms [1]; M. luteus) | Organism, effect (morphology, biofilm and growth disruption) (microorganisms [1]; MRSA) | Organism, effect (morphology, biofilm and growth disruption) (microorganisms [1]; S. epidermidis) | Organism, effect (morphology, biofilm and growth disruption) (microorganisms [1]; S. pneumoniae) | also measured
PF-005 (chain 1 MESIFKIKLMNGICRSENMNMKKKNKGEKI; chain 2 MESIFKIKLMNGICRSENMNMKKKNKGEKI; Peptide with targeting and/or antimicrobial activity) | S. epidermidis and E. coli and MRSA and S. pneumoniae and E. faecalis | G B |  |  |  |  |  | Organism, effect (microorganisms [1]; B. subtilis): B. subtilis (C); Organism, effect (microorganisms [1]; S. pneumoniae): S. pneumoniae (H)
PF-011 (MFCYYKQHKGDNFSIEEVKNIIADNEMKVN; Peptide with targeting and/or antimicrobial activity) | M. luteus; also recorded: E. coli; also recorded: P. aeruginosa; also recorded: S. pneumoniae; also recorded: C. jeikeium | G B | MRSA (R) |  |  |  |  | Organism, effect (microorganisms [1]; C. jeikeium): C. jeikeium (C)
PF-015 (SIDKRNLYNLKYYE; Peptide with targeting and/or antimicrobial activity) | E. faecalis; also recorded: C. jeikeium | G B | MRSA (W) |  |  |  |  | 
PF-017 (ESIIE; Peptide with targeting and/or antimicrobial activity) | E. coli | G B | MRSA (M) |  |  |  |  | 
PF-020 (MKIILLLFLIFGFIVVVTLKSEHQLTLFSI; Peptide with targeting and/or antimicrobial activity) | S. epidermidis and M. luteus and C. albicans and MRSA and S. pneumoniae and E. faecalis | G B | MRSA (C) |  |  |  |  | Organism, effect (microorganisms [1]; M. luteus): M. luteus (C); Organism, effect (microorganisms [1]; S. epidermidis): S. epidermidis (C); Organism, effect (microorganisms [1]; S. mutans): S. mutans (F); Organism, effect (microorganisms [1]; S. pneumoniae): S. pneumoniae (D)
PF-021 (FSLNFSKQKYVTVN; Peptide with targeting and/or antimicrobial activity) | S. epidermidis; also recorded: M. luteus; also recorded: P. mirabilis; also recorded: E. coli; also recorded: C. albicans; also recorded: E. faecalis; also recorded: C. jeikeium | G B | MRSA (R) |  |  |  |  | Organism, effect (microorganisms [1]; C. jeikeium): C. jeikeium (R); Organism, effect (microorganisms [1]; M. luteus): M. luteus (A); Organism, effect (microorganisms [1]; S. epidermidis): S. epidermidis (A)
PF-024 (DLRKAK; Peptide with targeting and/or antimicrobial activity) | M. luteus and C. albicans and MRSA and E. faecalis and C. jeikeium | G B | MRSA (M) |  |  |  |  | Organism, effect (microorganisms [1]; S. epidermidis): S. epidermidis (D)
PF-025 (LLIIFRLWLELKWKNKK; Peptide with targeting and/or antimicrobial activity) | S. epidermidis and M. luteus and P. mirabilis and E. coli and P. aeruginosa and MRSA and E. faecalis and C. jejuni | G B | MRSA (R) |  |  |  |  | Organism, effect (microorganisms [1]; C. jeikeium): C. jeikeium (A); Organism, effect (microorganisms [1]; M. luteus): M. luteus (A); Organism, effect (microorganisms [1]; S. epidermidis): S. epidermidis (S)
PF-026 (SIHFIN; Peptide with targeting and/or antimicrobial activity) | S. epidermidis and M. luteus and P. mirabilis and C. albicans and MRSA and E. faecalis and C. jeikeium | G B | MRSA (M) |  |  |  |  | 
PF-543 (NILFGIIGFVVAMTAAVIVTAISIAK; Peptide with targeting and/or antimicrobial activity) |  | G B |  | M. luteus (C) | MRSA (D) | S. epidermidis (D) | S. pneumoniae (D) | Organism, effect (morphology, biofilm and growth disruption) (microorganisms [1]; E. coli): E. coli (C); Organism, effect (morphology, biofilm and growth disruption) (microorganisms [1]; S. mutans): S. mutans (S)
PF-544 (FGEKQMRSWWKVHWFHP; Peptide with targeting and/or antimicrobial activity) |  | G B |  |  | MRSA (D) | S. epidermidis (D) | S. pneumoniae (M) | Organism, effect (morphology, biofilm and growth disruption) (microorganisms [1]; E. faecalis): E. faecalis (R)
PF-548 (ARPIADLIHFNSTTVTASGDVYYGPG; Peptide with targeting and/or antimicrobial activity) |  | G B |  | M. luteus (A) | MRSA (M) | S. epidermidis (M) | S. pneumoniae (D) | Organism, effect (morphology, biofilm and growth disruption) (microorganisms [1]; B. subtilis): B. subtilis (C); Organism, effect (morphology, biofilm and growth disruption) (microorganisms [1]; C. jeikeium): C. jeikeium (R); Organism, effect (morphology, biofilm and growth disruption) (microorganisms [1]; C. jejuni): C. jejuni (D)
PF-556 (SLQIRMNTLTAAKASIEAA; Peptide with targeting and/or antimicrobial activity) |  | G B |  | M. luteus (A) | MRSA (M) | S. epidermidis (A) | S. pneumoniae (D) | Organism, effect (morphology, biofilm and growth disruption) (microorganisms [1]; B. subtilis): B. subtilis (C); Organism, effect (morphology, biofilm and growth disruption) (microorganisms [1]; C. jeikeium): C. jeikeium (D); Organism, effect (morphology, biofilm and growth disruption) (microorganisms [1]; C. jejuni): C. jejuni (R); Organism, effect (morphology, biofilm and growth disruption) (microorganisms [1]; E. faecalis): E. faecalis (A)
PF-562 (TPEQWLERSTVVVTGLLNRK; Peptide with targeting and/or antimicrobial activity) |  | G B |  | M. luteus (R) | MRSA (M) | S. epidermidis (A) | S. pneumoniae (D) | Organism, effect (morphology, biofilm and growth disruption) (microorganisms [1]; C. jejuni): C. jejuni (R)
PF-577 (PFETRESFRVPVIGILGGWDYFMHP; Peptide with targeting and/or antimicrobial activity) |  | G B |  |  | MRSA (M) | S. epidermidis (A) | S. pneumoniae (R) | Organism, effect (morphology, biofilm and growth disruption) (microorganisms [1]; C. jejuni): C. jejuni (R); Organism, effect (morphology, biofilm and growth disruption) (microorganisms [1]; E. coli): E. coli (A); Organism, effect (morphology, biofilm and growth disruption) (microorganisms [1]; E. faecalis): E. faecalis (A); Organism, effect (morphology, biofilm and growth disruption) (microorganisms [1]; P. aeruginosa): P. aeruginosa (A)
PF-578 (QKANLRIGFTYTSDSNVCNLTFALLGSK; Peptide with targeting and/or antimicrobial activity) |  | G B |  | M. luteus (C) | MRSA (C) | S. epidermidis (D) | S. pneumoniae (D) | Organism, effect (morphology, biofilm and growth disruption) (microorganisms [1]; E. coli): E. coli (C); Organism, effect (morphology, biofilm and growth disruption) (microorganisms [1]; P. mirabilis): P. mirabilis (C); Organism, effect (morphology, biofilm and growth disruption) (microorganisms [1]; S. mutans): S. mutans (D)
PF-603 (IDKLKKMNLQKLSYEVRISQDGKSIYARIK; Peptide with targeting and/or antimicrobial activity) |  | G B |  | M. luteus (A) | MRSA (M) | S. epidermidis (D) | S. pneumoniae (C) | Organism, effect (morphology, biofilm and growth disruption) (microorganisms [1]; E. coli): E. coli (M)
PF-619 (chain 1 WSRVPGHSDTGWKVWHRW; chain 2 WSRVPGHSDTGWKVWHRW; Peptide with targeting and/or antimicrobial activity) |  | G B |  |  | MRSA (M) | S. epidermidis (M) | S. pneumoniae (C) | Organism, effect (morphology, biofilm and growth disruption) (microorganisms [1]; E. coli): E. coli (C)
B1 |  | G B |  |  |  |  | S. pneumoniae (H) | 
